Laboratory results from patent US7829584B2, “Pyridines and pyridine N-oxides as modulators of thrombin” (Janssen Pharmaceutica NV, priority 2006, dated 2010).

Biological target: T1, Human α-thrombin (Homo sapiens, UniProt P00734)
T1 construct: Human α-thrombin (Enzyme Research Laboratories HT1002a); purchased Enzyme Research Laboratories (South Bend, Ind.) HT1002a
Assay: In vitro inhibition of purified enzyme, kinetic analysis by chromogenic substrates (Thrombin assay)
Type: biochemical
Details: substrate SucAAPR pNA 100 uM, 37° C., pH 7.5, 405 nm, thrombin 1.1 nM
Method: In Vitro Inhibition of Purified Enzyme
Reagents: All buffer salts were obtained from Sigma Chemical Company (St. Louis, Mo.), and were of the highest purity available.
Human α-thrombin, was obtained from Enzyme Research Laboratories (South Bend, Ind.).
Kinetic Analysis by Chromogenic Substrates
Compounds were assessed for their inhibitory activity toward Thrombin by kinetic analysis using para-nitroaniline chromogenic substrates monitored at 405 nm. The assay buffer employed was 50 mM HEPES, pH 7.5, 200 mM NaCl, and fresh 0.05% n-octyl β-d-glucopyranoside. DMSO was present at a final concentration of 4%, derived from the substrate and inhibitory compound stock solutions. […] Reactions were initiated by addition of 10 μL protease, and increase in absorbance due to proteolytic cleavage of substrate was kinetically monitored at 37° C., 405 nm with a Molecular Devices Spectramax 340 plate reader. Initial velocities were determined by analysis of the initial linear portion of the reactions. Plots of vo/vi vs. inhibitor concentration, where vo=velocity without inhibitor, and vi=inhibited velocity, were fit to a linear regression line, and IC50 was determined from the reciprocal of the slope. Ki was calculated from IC50 using the Ki factor specific for the assay as: Ki=IC50×Ki factor, or Ki=IC50×(1/(1+[S]/Km)), where S is the substrate concentration in the assay, and Km is the Michaelis constant for the substrate (Cheng Y and Prusoff W H (1973) Biochem Pharmacol 22: 3099-3108).
The Thrombin assay incorporated substrate SucAAPR pNA (Bachem L-1720, [S]=100 uM final, Km=320 μM, Ki factor=0.76). Substrate in DMSO (10.7 mM) was diluted in assay buffer 100-fold for 100 μM final. Human α-thrombin (Enzyme Research Laboratories HT1002a) was diluted 1500-fold in assay buffer for a final assay concentration of 1.1 nM.

Compound	IC50
N#Cc1ccc(NCC(F)(F)c2ccccn2)[n+]([O-])c1CC(=O)NCc1cncc(Cl)c1 [Cpd 12, 3-cyano-6-(2,2-difluoro-2-pyridin-2-yl-ethylamino)-2-(5-chloro-pyridin-3-ylmethyl)aminocarbonylmethyl-pyridine 1-oxide]	~66 nM
N#Cc1ccc(NCC(F)(F)c2ccccn2)[n+]([O-])c1CC(=O)NCc1ccc2ccnc(N)c2c1 [Cpd 5, 3-cyano-6-(2,2-difluoro-2-pyridin-2-yl-ethylamino)-2-(1-Amino-isoquinolin-7-ylmethyl)aminocarbonylmethyl-pyridine 1-oxide]	~42 nM
N#Cc1ccc(NCC(F)(F)c2ccccn2)[n+]([O-])c1CC(=O)NCc1ccc2c(N)noc2c1 [Cpd 4, 3-cyano-6-(2,2-difluoro-2-pyridin-2-yl-ethylamino)-2-(3-amino-benzo[d]isoxazol-6-ylmethyl)aminocarbonylmethyl-pyridine 1-oxide]	~6.1 nM
N#Cc1ccc(NCC(F)(F)c2ccc(F)cc2)[n+]([O-])c1CC(=O)NCc1cnccc1-n1cncn1 [Cpd 8, 3-cyano-6-(2,2-difluoro-2-(4-fluoro-phenyl)-ethylamino)-2-(4-[1,2,4]triazol-1-yl-pyridin-3-ylmethyl)aminocarbonylmethyl-pyridine 1-oxide]	~3.4 nM
N#Cc1ccc(NCC(F)(F)c2ccccn2)[n+]([O-])c1CC(=O)NCc1ccc2onc(N)c2c1 [Cpd 3, 3-cyano-6-(2,2-difluoro-2-pyridin-2-yl-ethylamino)-2-(3-Amino-benzo[d]isoxazol-5-ylmethyl)aminocarbonylmethyl-pyridine 1-oxide]	~280 nM
N#Cc1ccc(NCC(F)(F)c2ccccn2)[n+]([O-])c1CC(=O)NCc1cccnc1-n1cncn1 [Cpd 10, 3-cyano-6-(2,2-difluoro-2-pyridin-2-yl-ethylamino)-2-(2-[1,2,4]triazol-1-yl-pyridin-3-ylmethyl)aminocarbonylmethyl-pyridine 1-oxide]	~170 nM
N=C(N)NOCCNC(=O)Cc1nc(NCC(F)(F)c2ccccc2)ccc1Cl [Cpd 11, N-{2-[(aminoiminomethyl)aminooxy]ethyl}-2-[3-chloro-6-(2,2-difluoro-2-phenyl-ethylamino)-pyridin-2-yl]-acetamide]	~370 nM
N#Cc1ccc(NCC(F)(F)c2ccccc2)[n+]([O-])c1CC(=O)NCCONC(=N)N [Cpd 1, 3-cyano-6-(2,2-difluoro-2-phenyl-ethylamino)-2-{2-[(aminoiminomethyl)aminooxy]ethyl}aminocarbonylmethyl-pyridine 1-oxide]	~0.13 nM
N#Cc1ccc(NCC(F)(F)c2ncccn2)[n+]([O-])c1CC(=O)NCc1cnccc1-n1cncn1 [Cpd 9, 3-cyano-6-(2,2-difluoro-2-pyrimidin-2-yl-ethylamino)-2-(4-[1,2,4]triazol-1-yl-pyridin-3-ylmethyl)aminocarbonylmethyl-pyridine 1-oxide]	~200 nM
N#Cc1ccc(NCC(F)(F)c2ccccn2)[n+]([O-])c1CC(=O)NCc1c(F)cccc1-n1cncn1 [Cpd 7, 3-cyano-6-(2,2-difluoro-2-pyridin-2-yl-ethylamino)-2-(2-[1,2,4]triazol-1-yl-6-fluoro-phenylmethyl)aminocarbonylmethyl-pyridine 1-oxide]	~0.44 nM
N=C(N)NOCCNC(=O)Cc1c(Cl)ccc(NCC(F)(F)c2ccccc2)[n+]1[O-] [Cpd 2, 3-chloro-6-(2,2-difluoro-2-phenyl-ethylamino)-2-{2-[(aminoiminomethyl)aminooxy]ethyl}aminocarbonylmethyl-pyridine 1-oxide]	~0.54 nM
N#Cc1ccc(NCC(F)(F)c2ccccn2)[n+]([O-])c1CC(=O)NCc1cnccc1-n1cncn1 [Cpd 6, 3-cyano-6-(2,2-difluoro-2-pyridin-2-yl-ethylamino)-2-(4-[1,2,4]triazol-1-yl-pyridin-3-ylmethyl)aminocarbonylmethyl-pyridine 1-oxide]	~3.3 nM
